Measurements published in article PMC3235172, “Distinct Expression Profiles and Different Functions of Odorant Binding Proteins in Nilaparvata lugens Stål” (PLoS ONE, 2011).
Like-named read-outs stand apart in the source and are kept apart here.

How the values were obtained:
NlugOBP1 = NlugOBP1 (Nilaparvata lugens, UniProt B6E9U1); test: Competitive fluorescence binding assay (1-NPN probe) with recombinant NlugOBP1
Procedure: (§1) The excitation wavelength was 337 nm and the emission spectrum was recorded between 370 and 460 nm by a fluorescence spectrometer (Hitachi F-7000 Fluorescence Spectrophotometer, Japan) with a 1 cm light path quartz cuvette and 10 nm slits for both excitation and emission.

NlugOBP2 = NlugOBP2 (Nilaparvata lugens, UniProt B6E9U2); test: Competitive fluorescence binding assay (1-NPN probe) with recombinant NlugOBP2
NlugOBP2, sequence (B6E9U2 entry or part of it): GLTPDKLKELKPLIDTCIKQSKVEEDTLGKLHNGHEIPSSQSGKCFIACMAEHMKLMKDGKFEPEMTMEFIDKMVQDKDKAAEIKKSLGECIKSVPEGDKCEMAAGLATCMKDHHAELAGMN
Procedure: as §1

NlugOBP3 = NlugOBP3 (Nilaparvata lugens, UniProt B6E9U3); test: Competitive fluorescence binding assay (1-NPN probe) with recombinant NlugOBP3
NlugOBP3, sequence (B6E9U3 entry or part of it): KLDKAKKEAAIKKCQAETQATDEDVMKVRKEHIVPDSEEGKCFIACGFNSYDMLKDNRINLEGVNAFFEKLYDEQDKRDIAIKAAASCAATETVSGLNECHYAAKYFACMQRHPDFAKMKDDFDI
Procedure: as §1

[1] = calculated from IC50, protein and 1-NPN at 2 µM, pH 7.4, read-out: OBP1 Ki
[2] = displacement of 1-NPN, protein and 1-NPN at 2 µM, 50 mM Tris-HCl pH 7.4, read-out: OBP1 IC50
[3] = calculated from IC50, protein and 1-NPN at 2 µM, pH 7.4, read-out: OBP2 Ki
[4] = displacement of 1-NPN, protein and 1-NPN at 2 µM, 50 mM Tris-HCl pH 7.4, read-out: OBP2 IC50
[5] = calculated from IC50, protein and 1-NPN at 2 µM, pH 7.4, read-out: OBP3 Ki
[6] = displacement of 1-NPN, protein and 1-NPN at 2 µM, 50 mM Tris-HCl pH 7.4, read-out: OBP3 IC50

NlugOBP1, sequence (B6E9U1 entry or part of it): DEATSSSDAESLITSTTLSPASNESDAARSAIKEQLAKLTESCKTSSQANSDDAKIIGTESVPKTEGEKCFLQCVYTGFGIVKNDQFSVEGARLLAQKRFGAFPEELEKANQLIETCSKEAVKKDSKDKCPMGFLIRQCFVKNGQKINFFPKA

| SMILES | Ki (NlugOBP1; [1]) [µM] | IC50 (NlugOBP1; [2]) [µM] | Ki (NlugOBP2; [3]) [µM] | IC50 (NlugOBP2; [4]) [µM] | Ki (NlugOBP3; [5]) [µM] | IC50 (NlugOBP3; [6]) [µM] | IC50 (NlugOBP1) [µM] | Ki (NlugOBP1) [µM] | binding ability with NlugOBP1 (in words) (NlugOBP1) | IC50 (NlugOBP2) [µM] | Ki (NlugOBP2) [µM] | binding ability with NlugOBP2 (in words) (NlugOBP2) | IC50 (NlugOBP3) [µM] | Ki (NlugOBP3) [µM] | binding ability with NlugOBP3 (in words) (NlugOBP3) | Kd (NlugOBP1) [µM] | Kd (NlugOBP2) [µM] | Kd (NlugOBP3) [µM] |
| --- | --- | --- | --- | --- | --- | --- | --- | --- | --- | --- | --- | --- | --- | --- | --- | --- | --- | --- |
| C=CC(C)(O)CC/C=C(\C)CCC=C(C)C (racemic) [Ligand 3, (+/-)Nerolidol] | 24.2 | 28.4 | 29.1 | 33.9 | 17.7 | 24.8 | – | – | – | – | – | – | – | – | – | – | – | – |
| COC(C)(C)CCC[C@H](C)C/C=C/C(C)=C/C(=O)OC(C)C (racemic) [Ligand 39, Methoprene] | – | – | – | – | – | – | 19.4 | 16.6 | high binding ability | 21.1 | 18.1 | high binding ability | 14.7 | 10.5 | high binding ability | – | – | – |
| c1ccc(Nc2cccc3ccccc23)cc1 [Ligand 1-NPN, N-phenyl-1-naphthyl-amine, reference compound] | – | – | – | – | – | – | – | – | – | – | – | – | – | – | – | 9.7 ± 0.9 | 10.3 ± 1.3 | 3.2 ± 0.3 |
| CCCCCC(C)O (centres unmarked) [Ligand 2, 2-Heptanol] | > 50 | > 50 | > 50 | > 50 | > 50 | > 50 | – | – | – | – | – | – | – | – | – | – | – | – |
| CC/C=C/CCO [Ligand 4, (E)-3-Hexen-1-ol] | – | – | – | – | – | – | > 50 | > 50 | – | > 50 | > 50 | – | 29.6 | 21.1 | – | – | – | – |
| CC(C)=CCC/C(C)=C/CC/C(C)=C/CO [Ligand 5, Farnesol] | 19.5 | 22.8 | 19.8 | 23 | 4.9 | 6.9 | – | – | high binding ability | – | – | high binding ability | – | – | high binding ability | – | – | – |
| C=CC(C)(O)CCC=C(C)C (centres unmarked) [Ligand 6, Linalool] | – | – | – | – | – | – | 40.8 | 34.7 | some affinities | > 50 | > 50 | – | > 50 | > 50 | none | – | – | – |
| OCCc1ccccc1 [Ligand 7, 2-phenylethanol] | 34 | 39.9 | > 50 | > 50 | 26.1 | 36.6 | – | – | – | – | – | – | – | – | – | – | – | – |
| CC(C)=CCC/C(C)=C/CO [Ligand 8, Geraniol] | – | – | – | – | – | – | > 50 | > 50 | – | > 50 | > 50 | – | 32.6 | 23.3 | – | – | – | – |
| CC1CCC(C(C)C)C(O)C1 (centres unmarked) [Ligand 10, Menthol] | – | – | – | – | – | – | > 50 | > 50 | – | > 50 | > 50 | – | > 50 | > 50 | – | – | – | – |
| CCCCCCCCCCCC=O [Ligand 12, Dodecyl aldehyde] | 16.6 | 19.5 | > 50 | > 50 | 18.9 | 26.5 | – | – | – | – | – | – | – | – | – | – | – | – |
| CCC/C=C/C=O [Ligand 13, (E)-2-Hexenal] | – | – | – | – | – | – | > 50 | > 50 | binds none | 33.5 | 28.8 | can bind | 42 | 30 | could bind | – | – | – |
| O=Cc1ccccc1 [Ligand 14, Benzaldehyde] | – | – | – | – | – | – | > 50 | > 50 | – | 38.7 | 33.3 | – | 41 | 29.3 | – | – | – | – |
| CCCCCCCCCCCC(C)=O [Ligand 15, 2-Tridecanone] | 20.5 | 24 | 37.1 | 43.2 | 8.6 | 12 | – | – | relatively high binding abilities | – | – | relatively high binding abilities | – | – | relatively high binding abilities | – | – | – |
